Reference: PMC9138991, “Effect of Trimethine Cyanine Dye- and Folate-Conjugation on the In Vitro Biological Activity of Proapoptotic Peptides” (Biomolecules, 2022)
Where a SMILES comes first, the peptide text is derived from it. Side-chain parts run from the residue outwards. [ ]: non-standard residue; d: D form. The star is where a group is joined. Pteroyl = Nc1nc2ncc(CNc3ccc(C(=O)*)cc3)nc2c(=O)[nH]1; Cha = N[C@@H](CC1CCCCC1)C(=O)O; dCha = N[C@H](CC1CCCCC1)C(=O)O

Assays:
Format in all cases: cell-based, human
[1] = system: KB, MCF7, SK-OV-3, and HEK293 cells; assay: Cell viability assay (CellTiter-Blue), statements over all tested cell lines; conditions: folate receptor α-high KB and SK-OV-3 versus MCF7 and HEK293
Experimental: (§1) SK-OV-3, MCF7, and HEK293 cells were seeded at a density of 2 × 10^4 cells per well in a Nunc™ MicroWell™ 96-well plate and grown at 37 °C in a 5% CO2 atmosphere in DMEM supplemented with 10% (v/v) FBS for 24 h. KB cells were seeded at a density of 7 × 10^3 cells per well in a 96-well plate and grown at 37 °C in a 5% CO2 atmosphere in folic acid-depleted RPMI-1640 medium supplemented with 10% (v/v) FBS for 24 h. Stock solutions of compounds 2–6 and 11–13 were obtained by dissolving the compounds in sterile deionized water. Compounds 1, and 7–10 were dissolved in pure DMSO. The stock solutions were diluted into the proper medium (according to the cell line tested) supplemented with 10% FBS to the appropriate concentration, and cells in each well were incubated with 100 µL of the solution. The solutions in each well were then adjusted to a concentration of 1% (v/v) DMSO. After 24 h at 37 °C, 20 µL of CellTiter-Blue™ was added to each well. The plate was incubated for another 4 h at 37 °C before analysis on a Perkin Elmer Victor X plate reader (excitation 531 nm; emission 595 nm). Each data point was calculated from a minimum of nine values resulting from three biological replicates (i.e., cells split from three different passages); each biological replicate is calculated from three technical replicates (i.e., cells split from the same passage). Value from media-only with CellTiter-Blue™ was set at 0% viability. This value was then subtracted from the values from cell-only (i.e., non-treated) wells with CellTiter-Blue™ in each biological replicate and set as 100% viability. For treatments of Cy3-containing compounds, blanks were generated with cell-free wells containing the compounds incubated for 24 h before addition of CellTiter-Blue™. The fluorescent reading for these wells was deducted from the treatment readings. Dose-response fitting curves were generated using Origin, version 2019b, OriginLab Corporation, Northampton, MA, USA (Figures S21–S24, Supplementary Materials).
(§2) Comparison of cytotoxicity fitting curves was achieved by applying the extra sum-of-squares F test, performed using GraphPad Prism version 9 for Windows, GraphPad Software, La Jolla, California, USA (https://www.graphpad.com/). […] Statistical analysis on the flow cytometry data was achieved by applying the unpaired two-tailed t-test test, performed using GraphPad Prism version 9 for Windows, GraphPad Software, La Jolla California USA, USA (https://www.graphpad.com/).
Cytotoxicity of 1–13 was evaluated using the CellTiter-Blue assay on KB, MCF7, SK-OV-3, and HEK293 cells. KB cells are derived from human cervical cancer, while SK-OV-3 cells are derived from human ovarian cancer. […] This feature is of particular relevance in anticancer applications, as it can be exploited for selective targeting and delivery. MCF7 is a cell line derived from human breast cancer with low levels of folate receptor α [27]. Therefore, it can serve as the negative control for folate receptor α mediated tumor-targeted drug delivery systems. HEK293 is a non-cancer cell line and was chosen to evaluate the specificity of the tested compounds toward cancer cells.

KB cells = assay: Cell viability assay (CellTiter-Blue), KB cells; conditions: 7 × 10^3 cells per well, folic acid-depleted RPMI-1640 + 10% FBS, 1% DMSO, 24 h at 37 °C, then CellTiter-Blue 4 h, three biological replicates fitted in Origin, standard error in brackets
Experimental: (§3) KB and MCF7 cells were kindly gifted by Prof. Arwyn T. Jones (Cardiff University), HEK293 cells were purchased from Public Health England, and SK-OV-3 cells were purchased from National Collection of Authenticated Cell Cultures (https://cell-bank.org.cn/). Cells were routinely tested for mycoplasma infection. KB and SK-OV-3 cells were maintained in T75 flasks at 37 °C in a 5% CO2 atmosphere in folic acid-depleted Roswell Park Memorial Institute (RPMI)-1640 medium supplemented with 10% (v/v) fetal bovine serum (FBS). MCF7 and HEK293 cells were maintained in T75 flasks at 37 °C in a 5% CO2 atmosphere in Dulbecco’s Modified Eagle’s medium (DMEM) supplemented with 10% (v/v) FBS. Cells were maintained at a sub-confluent monolayer and split at 80–85% confluency. For splitting, cells were washed with PBS, trypsinized in 1 mL of trypsin, and 200 µL of the 1000 µL trypsin cell suspension was re-suspended in 12 mL fresh DMEM containing 10% (v/v) FBS in a new T75 flask. KB and SK-OV-3 cells were used for biological experiments after being maintained for at least 10 days in folic acid-depleted RPMI-1640 medium.
as §1, §2
(§4) Cytotoxicity of 1–13 was evaluated using the CellTiter-Blue assay on KB, MCF7, SK-OV-3, and HEK293 cells. KB cells are derived from human cervical cancer, while SK-OV-3 cells are derived from human ovarian cancer. […] This feature is of particular relevance in anticancer applications, as it can be exploited for selective targeting and delivery. […]

MCF7 cells = assay: Cell viability assay (CellTiter-Blue), MCF7 cells; conditions: MCF7 cells, 2 × 10^4 cells per well, DMEM + 10% FBS, 1% DMSO, 24 h at 37 °C, then CellTiter-Blue 4 h; three biological replicates fitted in Origin, standard error in brackets
Experimental: as §3, §1, §2, §4

HEK293 cells = assay: Cell viability assay (CellTiter-Blue), HEK293 cells; conditions: 2 × 10^4 cells per well, DMEM + 10% FBS, 1% DMSO, 24 h at 37 °C, then CellTiter-Blue 4 h, three biological replicates fitted in Origin, standard error in brackets
Experimental: as §3, §1, §2, §4

SK-OV-3 cells = assay: Cell viability assay (CellTiter-Blue), SK-OV-3 cells; conditions: 2 × 10^4 cells per well, medium + 10% FBS, 1% DMSO, 24 h at 37 °C, then CellTiter-Blue 4 h, three biological replicates fitted in Origin, standard error in brackets
Experimental: as §3, §1, §2, §4

| SMILES | Selectivity of cytotoxicity between cell lines, in words [1] | EC50 (KB cells) [µM] | EC50 (MCF7 cells) [µM] | EC50 (HEK293 cells) [µM] | EC50 (SK-OV-3 cells) [µM] |
| --- | --- | --- | --- | --- | --- |
| CC(=O)N[C@@H](CCCCNC(=O)[C@H](CCC(=O)O)NC(=O)c1ccc(NCc2cnc3nc(N)nc(O)c3n2)cc1)C(=O)N[C@H](CCCCN)C(=O)N[C@H](CC(C)C)C(=O)N[C@H](C)C(=O)N[C@H](CCCCN)C(=O)N[C@H](CC(C)C)C(=O)N[C@H](C)C(=O)N[C@H](CCCCN)C(=O)N[C@H](CCCCN)C(=O)N[C@H](CC(C)C)C(=O)N[C@H](C)C(=O)N[C@H](CCCCN)C(=O)N[C@H](CC(C)C)C(=O)N[C@H](C)C(=O)N[C@H](CCCCN)C(N)=O [Compound 12] | enhanced toxicity in KB but not in SK-OV-3 cells when compared to MCF7 and HEK293 cells | 151 | > 400 | > 400 | 388 |
| CC(=O)N[C@@H](CCCCNC(=O)[C@H](CCC(=O)O)NC(=O)c1ccc(NCc2cnc3nc(N)nc(O)c3n2)cc1)C(=O)N[C@H](CCCCN)C(=O)N[C@H](CC1CCCCC1)C(=O)N[C@H](C)C(=O)N[C@H](CCCCN)C(=O)N[C@@H](CC1CCCCC1)C(=O)N[C@H](C)C(=O)N[C@H](CCCCN)C(=O)N[C@H](CCCCN)C(=O)N[C@@H](CC1CCCCC1)C(=O)N[C@H](C)C(=O)N[C@H](CCCCN)C(=O)N[C@H](CC1CCCCC1)C(=O)N[C@H](C)C(=O)N[C@H](CCCCN)C(N)=O [Compound 13] (Ac-K([Glu-Pteroyl])[dK][dCha][dA][dK][Cha][dA][dK][dK][Cha][dA][dK][dCha][dA][dK]-NH2) | significantly higher | 9.8 | 26.9 | 20.4 | 41.5 |
